Our source for the IC50, half-life and inhibition values is US9353075B2, “Disubstituted beta-lactones as inhibitors of N-acylethanolamine acid amidase (NAAA)” (The Regents of the University of California, priority 2011, dated 2016).

One data set deals with r-NAAA (Rattus norvegicus (Rat), UniProt Q5KTC7). The experiment in a line: r-NAAA inhibition, rat lung lysosomal NAAA preparation, UPLC/MS. Format: biochemical. The method in brief: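 Substrate was 50 μM heptadecenoylethanolamide, incubated 30 min at 37 °C after a 30 min compound preincubation at pH 4.5 with 1% Triton-X and 3 mM DTT. The enzyme source was rat lung lysosomal preparation. IC50 came from curve fitting of reduced heptadecenoic acid product, measured by negative-mode UPLC/MS versus vehicle.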
r-NAAA, sequence (Q5KTC7 34-362): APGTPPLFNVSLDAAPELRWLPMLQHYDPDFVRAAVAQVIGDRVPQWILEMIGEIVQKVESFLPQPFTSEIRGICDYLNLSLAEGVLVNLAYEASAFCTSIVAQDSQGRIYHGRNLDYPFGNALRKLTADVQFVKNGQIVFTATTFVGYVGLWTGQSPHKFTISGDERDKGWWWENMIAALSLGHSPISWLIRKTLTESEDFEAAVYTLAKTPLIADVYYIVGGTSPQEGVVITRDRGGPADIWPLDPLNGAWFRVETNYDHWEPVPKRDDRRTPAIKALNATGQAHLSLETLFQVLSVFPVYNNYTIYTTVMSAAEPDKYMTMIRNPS

Data set [1] can be described thus: Chemical stability in PBS buffer pH 7.4. Format: physicochemical. Particulars: phosphate-buffered saline, 0.01M PBS pH 7.4, 37° C., read-out: Stability in PBS buffer, pH 7.4 t1/2. The protocol:
Chemical stability of select compounds was evaluated under physiological pH conditions (0.01M Phosphate-Buffered Saline, pH 7.4) for up to 24 h. Stock solutions of each compound (10 mM) were prepared freshly in DMSO. Each compound was incubated at a final concentration of 10 μM (1% DMSO) in pre-heated buffer (0.01M Phosphate-Buffered Saline (PBS), pH 7.4 at 37° C.). The sample solutions were divided into aliquots in glass vials (pre-heated at 37° C.) for each time point. The samples were maintained at 37° C. in the UPLC/MS Autosampler during the study (no shaking). A reference solution of each compound (final concentration: 10 μM at 1% DMSO) in pre-heated CH3CN (37° C.) was prepared from the stock solutions (10 mM in DMSO). The reference solutions were maintained at 37° C. in the UPLC/MS Autosampler during the study (no shaking). An internal standard (100 nM) was added to the sample and reference solutions. For each time point, the samples were analyzed directly by LC/MS without any further sample preparation. The samples were analyzed (triplicate injection) by monitoring the MS trace by Multiple Reaction Monitoring (MRM). The compound concentration (expressed as %) was calculated by dividing the peak area at each time point by the peak area at t=0 min. The reference solution was analyzed at the beginning (t=0 min.), and at the end of the study (t=24 h). The apparent half-lives (t1/2) of the disappearance of compound were calculated by a one-phase decay equation using a non-linear regression of compound concentration versus time.
The analyses were performed on a Waters ACQUITY UPLC/MS TQD system consisting of a TQD (Triple Quadropole Detector) Mass Spectrometer equipped with an Electrospray Ionization interface and a Photodiode Array Detector. The analyses were run on an ACQUITY UPLC BEH C18 1.7 μm 2.1×50 mm column with a VanGuard BEH C18 1.7 μm pre-column at 40° C. The mobile phase was 0.1% HCOOH in H2O (A) and 0.1% HCOOH in CH3CN (B) using a linear gradient: 0-0.2 min.: 5% B, 0.2-2.2 min.: 5-95% B, 2.2-2.3 min.: 95-5% B, 2.3-3 min.: 5% B with flow rate at 0.5 mL/min. […]

The next data set concerns the target Acid Ceramidase (AC) (Rattus norvegicus (Rat), UniProt Q6P7S1). The data set can be described thus: Acid ceramidase inhibition, recombinant rat AC, LC-MS. It counts as biochemical. Particulars: read-out: r-AC % inhib. @ 10 μM. As for the experimental part:
The PCR (High Fidelity PCR Master, Roche) product was subcloned into a pEF6-[…] vector (Invitrogen) to construct a mammalian expression vector encoding […]-tagged rat AC. HEK293 cells were transfected with pEF6-rAC-[…] using Super-Fect reagent (Qiagen) and screened with G418 (0.3 mg/mL). Cells were suspended in 20 mM Tris HCl (pH 7.5) containing 0.32M sucrose, sonicated and centrifuged at 800×g for 15 minutes at 4° C. The supernatants were centrifuged again at 12,000×g for 30 minutes at 4° C. The pellets were suspended in phosphate-buffered saline (PBS) and subjected to 2 freeze-thaw cycles at -80° C. The suspensions were centrifuged at 105,000×g for 1 hour at 4° C. The supernatants containing recombinant AC were kept at -80° C. until use. Protein concentration was measured using the bicinchoninic acid (BCA) assay (Pierce). […] Reactions were stopped by addition of a mixture of chloroform/methanol (2:1, vol/vol) containing 1 nmol of heptadecanoic acid (HDA; NuChek Prep). […] HDA was eluted on an XDB Eclipse C18 column isocratically at 2.2 mL/min for 1 minute with a solvent mixture of 95% methanol and 5% water, both containing 0.25% acetic acid and 5 mM ammonium acetate. The column temperature was 50° C. Electrospray ionization (ESI) was in the negative mode, capillary voltage as 4 kV, and fragmentor voltage was 100 V. N2 was used as drying gas at a flow rate of 13 L/min and a temperature of 350° C. Nebulizer pressure was set at 60 psi. We monitored [M-H]- in the selected-ion monitoring (SIM) mode using HDA as internal standard. Calibration curves were generated using commercial lauric acid (Nu-Chek Prep; m/z=199).

Acid Ceramidase (AC), sequence (Q6P7S1 21-394): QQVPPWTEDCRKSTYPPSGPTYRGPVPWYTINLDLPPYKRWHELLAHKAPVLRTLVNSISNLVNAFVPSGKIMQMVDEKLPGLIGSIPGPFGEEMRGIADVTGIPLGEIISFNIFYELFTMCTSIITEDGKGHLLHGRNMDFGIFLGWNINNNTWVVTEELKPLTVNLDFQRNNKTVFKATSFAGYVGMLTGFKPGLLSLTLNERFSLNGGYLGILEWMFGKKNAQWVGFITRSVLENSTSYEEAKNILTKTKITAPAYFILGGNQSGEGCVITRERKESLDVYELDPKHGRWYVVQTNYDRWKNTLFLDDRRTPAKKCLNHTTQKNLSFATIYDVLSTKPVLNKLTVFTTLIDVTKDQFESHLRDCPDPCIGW

On r-NAAA, `C[C@@H]1OC(=O)[C@@H]1NC(=O)CCCCCCc1ccccc1` [corresponding amide analog, reference compound] came in with an IC50 of 540 nM. Also, the half-life at 10 μM in data set [1] came out at 1.05 h. Also, on Acid Ceramidase (AC), the inhibition at 10 µM was under 10%.
